Data reported in paper PMC13083723 (Patterns, 2026).
Where two headings read alike, the source gives them in different places.

Legend:
SARS-CoV-2 [1] = details: cited from earlier work; for CaCo2 CPE inhibition %: Caco-2, 20 µM
Vero-E6 cells = test: cells; assay type: cell-based; details: for activation at 5 µM / activation at 10 µM / activation at 20 µM: Vero C1008, 24 h; for activation at 5 µM: read-out: PLD Effect in % 5 µM; for activation at 10 µM: read-out: PLD Effect in % 10 µM; for activation at 20 µM: read-out: PLD Effect in % 20 µM
SARS-CoV-2 [2] = details: cited from earlier work; for Vero-E6 CPE inhibition %: 10 µM
[3] = Chlorocebus sabaeus, Vero C1008, read-out: PLD EC50 µM

Row | Compound | CaCo2 CPE inhibition % (SARS-CoV-2 [1]) | activation at 5 µM (Vero-E6 cells; Chlorocebus sabaeus) [%] | activation at 10 µM (Vero-E6 cells; Chlorocebus sabaeus) [%] | activation at 20 µM (Vero-E6 cells; Chlorocebus sabaeus) [%] | EC50 (Vero-E6 cells; [3]) [µM] | Vero-E6 CPE inhibition % (SARS-CoV-2 [2]) | CaCo2 EC50 µM (SARS-CoV-2 [1]) | PLD EC50 µM (Vero-E6 cells) | PLD Effect in % 5 µM (Vero-E6 cells) | PLD Effect in % 10 µM (Vero-E6 cells) | PLD Effect in % 20 µM (Vero-E6 cells) | Vero-E6 EC50 µM (SARS-CoV-2 [2]) | EC50 (Vero-E6 cells; Chlorocebus sabaeus, Vero C1008, read-out: PLD EC50) [µM] | EC50 (Vero-E6 cells; read-out: PLD EC50) [µM] | EC50 (SARS-CoV-2 [2]; read-out: Vero-E6 EC50) [nM]
1 | Cc1cc(Nc2ncc(Cl)c(Nc3ccccc3S(=O)(=O)C(C)C)n2)c(OC(C)C)cc1C1CCNCC1 [Ceritinib, reference compound] | 59.98% | 91.9 | 116 | 137 | 2.18 | -0.35% | – | – | – | – | – | – | – | – | –
2 | CCN1CCN(Cc2ccc(C(=O)Nc3ccc(C)c(Oc4ccc5c(c4)CC(=O)N5)c3)cc2C(F)(F)F)CC1 [DDR1-IN-1, reference compound] | 77.58% | 55.7 | 75.8 | 21.8 | – | -0.37% | – | – | – | – | – | – | – | – | –
3 | COc1cc(C)c2c(Oc3cccc(C(F)(F)F)c3)c(OC)cc(NC(C)CCCN)c2n1 (stereo not drawn) [tafenoquine, reference compound] | toxic | – | – | – | – | toxic | toxic | toxic | toxic | toxic | toxic | toxic | – | – | –
4 | COc1cc2c(Nc3ccc(Br)cc3F)ncnc2cc1OCC1CCN(C)CC1 [Vandetanib (ZD6474), Vandetanib, reference compound] | 51.24 | 129 | 136 | -32.7 | – | 0.29 | – | – | – | – | – | – | 1.05 | – | –
5 | COc1ccc(NC(=O)c2ccc(-c3ccc(-c4noc(C)n4)cc3C)cc2)cc1OCCN(C)C [SB-216641, reference compound] | 57.65% | – | – | – | – | -0.22% | – | – | 93.22% | 104.74% | -42.60% | – | – | 1.19 | –
6 | Cc1ccc(C(=O)N(CCCN)[C@@H](c2oc3cc(Cl)ccc3c(=O)c2Cc2ccccc2)C(C)C)cc1 [SB-743921, reference compound] | 78.89% | 172 | 224 | -43.6 | 2.49 | -0.36% | – | – | – | – | – | – | – | – | –
7 | CC(C)c1ccc2c(c1)CC[C@H]1[C@](C)(CN)CCC[C@]21C [Lylamine, reference compound] | 76.43% | – | – | – | – | -0.36% | – | – | 104.48% | 133.55% | -41.01% | – | – | – | –
8 | O=C(NC1CCN(CCCCC2(C(=O)NCC(F)(F)F)c3ccccc3-c3ccccc32)CC1)c1ccccc1-c1ccc(C(F)(F)F)cc1 [Lomitapide, reference compound] | 77.37% | 82.8 | 169 | -28.6 | – | -0.39% | – | – | – | – | – | – | – | – | –
9 | CCOc1cc2ncc(C#N)c(Nc3ccc(F)c(Cl)c3)c2cc1NC(=O)/C=C/CN(C)C [Pelitinib (EKB-569), Pelitinib, reference compound] | 83.39% | 76.1 | 85.5 | 101 | – | -0.31 | – | – | – | – | – | – | – | – | –
10 | COC(=O)C1=C(C)NC(C)=C(C(=O)NCCCN2CCC(c3ccccc3)(c3ccccc3)CC2)C1c1ccc([N+](=O)[O-])cc1 (stereo not drawn) [SNAP-5089, reference compound] | 72.63% | 66.5 | 78.4 | 24.9 | 2.01 | -0.12% | – | – | – | – | – | – | – | – | –
11 | amodiaquine dihydrochloride [reference compound] | 78.80% | – | – | – | – | 20.16% | – | – | 88.75% | 101.86% | 186.68% | – | – | – | 21500
12 | O=C(Nc1ccc(CN2CCOCC2)cc1)c1ccc(-c2cccc(Cl)c2)o1 [CID-2011756, reference compound] | 96.96% | – | – | – | – | 0.15 | – | – | 27.66% | 31.32% | 55.98% | – | – | > 20 | –
13 | CN1C[C@H](CNC(=O)OCc2ccccc2)C[C@@H]2c3cccc4c3c(cn4C)C[C@H]21 [metergoline, reference compound] | 54.65% | 61 | 73 | 103 | – | 0.05% | – | – | – | – | – | – | – | – | –
14 | COc1ccc(NC(=O)c2ccc(-c3ccc(-c4noc(C)n4)cc3C)cc2)cc1N1CCN(C)CC1 [GR-127935, reference compound] | 53.73% | 136 | 162 | -40.2 | 1.12 | -0.76% | – | – | – | – | – | – | – | – | –
